One assay deals with LNCaP cells. Description: Cell viability, trypan blue exclusion assay, LNCaP. The class given is cell-based, human. As to the method: (§1) The siRNAs complexes were made according to the following procedures: 60 μl of siRNAs (10 μM stock solution) were combined with 60 μl of tranfection reagent and incubated at room temperature for 30 minutes to make the siRNA complex. The siRNA complex was then added to twenty four hours post plated cells giving a final concentration of 50 nM of siRNA complex in complete media. The cells were incubated with either siRNA-A, or PKC-ι, PKC-ζ, and PKC-δ siRNA (50 nM for RWPE-1, 100 nM for LNCaP and 150 nM for DU-145 respectively). Following treatments, the cells were washed with phosphate buffered saline (PBS), trypsinized and resuspended in 2-3 ml of PBS.
(§2) Cell viability was quantified using trypan blue exclusion assay and the numbers of unstained cells were counted as mentioned above. Three independent experiments were carried out for each treatment with controls. Cell viability was determined relative to vehicle control using the mean and SD for each time point. Statistical determination by Student's T test using Minitab program (Minitab Inc. State College, Pa.).
(§3) Subconfluent RWPE-1 (A), LNCaP (B) and DU-145 (C) cells (2.5×10^5) were treated with PKC-ι siRNA (50 nM for RWPE-1, 100 nM for LNCaP and 150 nM for DU-145) complex from 24-72 h as described in “Materials and Methods.” At the indicated time, the viable cells were counted using trypan blue exclusion assay and a hematocyometry. Three independent experiments were performed and the mean of the viable cells and SD were plotted. After titrating PKC-ι siRNA concentrations from 50-100 nM, we used an optimal concentration of PKC-ι siRNA (50 nM) and control siRNA to suppress PKC-ι expression. […]
(§4) Cell lysates (50 μg) of an exponentially growing DU-145 cells were immunoprecipitated with either rabbit polyclonal PKC-ι antibody and/or IKKα/β rabbit polyclonal antibody. […] After incubation for 24-72 hours with ICA-1 (0.1 μM-60 μM), both the control cells and ICA-1 treated cells were trypsinized and viable cells were counted using trypan blue exclusion assay and a hematocytometry. […]

In the next assay the test system is DU-145 cells. Put plainly: Cell viability, trypan blue exclusion assay, DU-145. The class given is cell-based, human. As to the method:
as §1, §2, §3, §4

For another assay, the target named is T1, PKC-ι (Homo sapiens, UniProt P41743).
T1 construct: Cell lysates (50 μg) of an exponentially growing DU-145 cells were immunoprecipitated with either rabbit polyclonal PKC-ι antibody; endogenous in cells; host or cells: DU-145 (whole cell lysate, immunoprecipitate on anti-rabbit IgG-agarose beads)
T1 sequence (P41743 1-596): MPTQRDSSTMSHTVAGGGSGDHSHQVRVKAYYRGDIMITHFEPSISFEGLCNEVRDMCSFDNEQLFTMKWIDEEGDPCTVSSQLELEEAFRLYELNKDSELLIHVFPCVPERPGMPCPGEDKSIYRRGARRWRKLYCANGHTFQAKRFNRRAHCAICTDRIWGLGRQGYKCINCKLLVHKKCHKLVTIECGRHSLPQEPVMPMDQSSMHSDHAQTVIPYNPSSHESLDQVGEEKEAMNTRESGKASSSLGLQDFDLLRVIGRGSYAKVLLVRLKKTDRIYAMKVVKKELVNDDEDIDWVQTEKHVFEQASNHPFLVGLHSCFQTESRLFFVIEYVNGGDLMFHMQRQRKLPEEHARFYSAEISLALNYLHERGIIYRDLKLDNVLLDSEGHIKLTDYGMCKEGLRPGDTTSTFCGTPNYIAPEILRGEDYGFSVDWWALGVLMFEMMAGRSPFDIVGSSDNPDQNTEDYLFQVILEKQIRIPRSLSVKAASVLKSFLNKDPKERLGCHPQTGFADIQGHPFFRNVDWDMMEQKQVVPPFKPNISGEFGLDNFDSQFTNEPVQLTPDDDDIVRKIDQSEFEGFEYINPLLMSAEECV
Description: Kinase assay: phosphorylation of IKKα/β by immunoprecipitated PKC-ι from DU-145 cells. As to conditions: ICA-1 100 nM, co-immunoprecipitated PKC-ι and IKKα/β. Type of assay: biochemical. The protocol:
DU-145 cells (3.75×10^5) were grown as a monolayer in T75 flasks overnight. Whole cell lysates of (100 μg) were immunoprecipitated as follows: cell lystaes (50 μg) were pre-cleared for 30 min at 4° C. with anti-rabbit IgG-agarose beads (1:1 v/v, 10 μl) (catalog number A8914; Sigma Aldrich) and incubated with 5 μg of PKC-ι rabbit polyclonal antibody and/or IKKα/β rabbit polyclonal antibody (5 μg) overnight at 4° C. and then a further 1 h with anti-rabbit IgG-agarose beads (1:1 v/v, 50 μl). The immunoprecipitated samples were incubated with kinase buffer (50 μl of 3.03 mg/10 ml ATP, 30 mM of Tris p.H 7.4, 50 μl of 5 μg phosphotidylserine) at 30° C. in a water bath for 5 minutes. The reaction was terminated by placing the samples in ice. The PKC-ι inhibitor 1H-imidazole-4-carboxamide, 5-amino-1-[2,3-dihydroxy-4-[(phosphonooxy)methyl]cyclopentyl]-, [1R-(1a, 2b, 3b, 4a)] (ICA-1; 100 nM) was synthesized by Southern Research Institute (Birmingham, Ala.). […]
as §4

As for `NC(=O)c1ncn(C2CC(COP(=O)(O)O)C(O)C2O)c1N` (stereo not drawn) [ICA-1, 1H-imidazole-4-carboxamide, 5-amino-1-[2,3-dihydroxy-4-[(phosphonooxy)methyl]cyclopentyl]-, [1R-(1a, 2b, 3b, 4a)]], the “inhibition of cell proliferation” value with LNCaP cells (ICA-1 0.1 μM-60 μM, 24-72 hours) is given as “does not significantly (p>0.05 for both cell lines) inhibit”; with DU-145 cells (DU-145, ICA-1 0.1 μM-60 μM, 24-72 hours), “does not significantly (p>0.05 for both cell lines) inhibit”. For the same compound, the “cell numbers at low concentration” value with LNCaP cells (ICA-1 0.1-0.5 μM) is listed as “increase in cell numbers”; with DU-145 cells (DU-145, ICA-1 0.1-0.5 μM), “increase in cell numbers”. Further, the “cell growth at high concentration” value is listed as “inhibition of cell growth” in the assay with LNCaP cells (ICA-1 10-60 μM) and “inhibition of cell growth” in the assay on DU-145 cells (DU-145, ICA-1 10-60 μM). On PKC-ι, the “phosphorylation of IKKα/β (Ser176/180) by PKC-ι” value was “inhibited”.

The values above are taken from patent publication US9078915B2, “Prostate carcinogenesis predictor” (University of South Florida, priority 2007, dated 2015).
